Reference: ChEMBL document CHEMBL1201862, “PubChem BioAssay data set” (2004)
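Five compound concentrations were applied to cells in 96-well plates for 48 hours; endpoints were derived by simple linear interpolation of the resulting dose-response curve. GI50 = concentration required for 50% inhibition of growth.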 Activity calls are given as the source filed them. No stated cut-off is given here; in the data, active = GI50 up to about 1.1 µM and inactive = higher.

Tests used:
Test in all cases: growth of human tumour cells (NCI), 48 h
KM12 = tested on: KM12
SK-MEL-2 = tested on: SK-MEL-2
NCI-H226 = tested on: NCI-H226
M14 = tested on: M14
MDA-N = tested on: MDA-N
UACC-62 = tested on: UACC-62
OVCAR-8 = tested on: OVCAR-8
TK-10 = tested on: TK-10
IGROV-1 = tested on: IGROV-1
K562 = tested on: K562
HL-60 = tested on: HL-60
SK-MEL-28 = tested on: SK-MEL-28
SF-268 = tested on: SF-268
MDA-MB-231 = tested on: MDA-MB-231
NCI/ADR-RES = tested on: NCI/ADR-RES
Hs-578T = tested on: Hs-578T
SR = tested on: SR
CAKI-1 = tested on: CAKI-1
SN12C = tested on: SN12C
HOP-62 = tested on: HOP-62

Structure (SMILES) | GI50 (KM12) | GI50 (SK-MEL-2) | GI50 (NCI-H226) | GI50 (M14) | GI50 (MDA-N) | GI50 (UACC-62) | GI50 (OVCAR-8) | GI50 (TK-10) | GI50 (IGROV-1) | GI50 (K562) | GI50 (HL-60) | GI50 (SK-MEL-28) | GI50 (SF-268) | GI50 (MDA-MB-231) | GI50 (NCI/ADR-RES) | GI50 (Hs-578T) | GI50 (SR) | GI50 (CAKI-1) | GI50 (SN12C) | GI50 (HOP-62)
CCCCCCCCCCCCCCC(O)C[N+](C)(CCO)CCO (stereo not given) | 1.94 µM (inactive) | 7.31 µM (inactive) | 2.04 µM (inactive) | 1.59 µM (inactive) | 5.86 µM (inactive) | 2.47 µM (inactive) | 4.11 µM (inactive) | 1.39 µM (inactive) | 1.15 µM (inactive) | 4.24 µM (inactive) | 0.585 µM (active) | 9.79 µM (inactive) | 1.89 µM (inactive) | 1.14 µM (inactive) | 20.3 µM (inactive) | 2.17 µM (inactive) | 1.92 µM (inactive) | 1.32 µM (inactive) | 4.7 µM (inactive) | 2.19 µM (inactive)
C(=C\c1cc(-c2ccc3ccccc3n2)nc2ccc3ccccc3c12)/c1ccc2ccccc2n1 | > 100 µM (inactive) | – | > 100 µM (inactive) | > 100 µM (inactive) | > 100 µM (inactive) | > 100 µM (inactive) | > 100 µM (inactive) | > 100 µM (inactive) | > 100 µM (inactive) | > 100 µM (inactive) | > 100 µM (inactive) | > 100 µM (inactive) | 74.1 µM (inactive) | > 100 µM (inactive) | > 100 µM (inactive) | 29.4 µM (inactive) | > 100 µM (inactive) | > 100 µM (inactive) | > 100 µM (inactive) | > 100 µM (inactive)
O=C(Nc1ccc(Cl)cc1)c1cc(S(=O)(=O)Nc2n[nH]c(Nc3ccc4ccccc4c3)n2)c(SSc2cc(Cl)c(C(=O)Nc3ccc(Cl)cc3)cc2S(=O)(=O)Nc2n[nH]c(Nc3ccc4ccccc4c3)n2)cc1Cl | 20 µM (inactive) | – | 21.7 µM (inactive) | 24.2 µM (inactive) | 32.4 µM (inactive) | 22.9 µM (inactive) | 27 µM (inactive) | 27.3 µM (inactive) | 21.7 µM (inactive) | 20.5 µM (inactive) | 25.1 µM (inactive) | 21.8 µM (inactive) | 41.4 µM (inactive) | 18.6 µM (inactive) | 30.8 µM (inactive) | 31.8 µM (inactive) | 23.7 µM (inactive) | 19.1 µM (inactive) | 22.5 µM (inactive) | 27.7 µM (inactive)
Cc1ccccc1NC(=O)O/N=C(\Cl)C(C)C | 18.6 µM (inactive) | 17.8 µM (inactive) | 16 µM (inactive) | 3.22 µM (inactive) | 2.72 µM (inactive) | 14.9 µM (inactive) | 17.5 µM (inactive) | 3.94 µM (inactive) | 9.42 µM (inactive) | 1.46 µM (inactive) | 2.46 µM (inactive) | 2.4 µM (inactive) | 19.3 µM (inactive) | 17.7 µM (inactive) | 16.5 µM (inactive) | 22.3 µM (inactive) | 2.85 µM (inactive) | 1.77 µM (inactive) | 1.62 µM (inactive) | 17.3 µM (inactive)
O=C1N[C@H]2C(=O)c3c(Cl)sc(Cl)c3[C@H]2O1 | 17.3 µM (inactive) | 19.5 µM (inactive) | 32.1 µM (inactive) | 6.28 µM (inactive) | 5.06 µM (inactive) | 13.3 µM (inactive) | 2.79 µM (inactive) | 29.2 µM (inactive) | 4.69 µM (inactive) | 1.99 µM (inactive) | 2.18 µM (inactive) | 6.64 µM (inactive) | 4.8 µM (inactive) | 14.1 µM (inactive) | 20.1 µM (inactive) | 23.2 µM (inactive) | 2.56 µM (inactive) | 4.79 µM (inactive) | 10.9 µM (inactive) | 16.5 µM (inactive)
COc1cc2c(c(OC)c1OC)C(=O)[C@@H]1[C@H]2N1C(=O)NCCCl | 53.3 µM (inactive) | > 100 µM (inactive) | 64 µM (inactive) | 50.4 µM (inactive) | 32.4 µM (inactive) | 61.4 µM (inactive) | 79.4 µM (inactive) | > 100 µM (inactive) | 33.5 µM (inactive) | 45.8 µM (inactive) | 29.2 µM (inactive) | > 100 µM (inactive) | 76.9 µM (inactive) | > 100 µM (inactive) | > 100 µM (inactive) | 61.2 µM (inactive) | 46.2 µM (inactive) | 56.8 µM (inactive) | 54.7 µM (inactive) | > 100 µM (inactive)
CN1/C(=C/C=C/C=C/C=C2C(=O)c3ccccc3C2=O)C(C)(C)c2ccccc21 | 76.9 µM (inactive) | 20.3 µM (inactive) | 51.9 µM (inactive) | 37.5 µM (inactive) | 35.6 µM (inactive) | 17.7 µM (inactive) | 44 µM (inactive) | > 100 µM (inactive) | 39.6 µM (inactive) | 13.3 µM (inactive) | 36.6 µM (inactive) | – | 43.3 µM (inactive) | 10.3 µM (inactive) | 76.2 µM (inactive) | 29.9 µM (inactive) | > 100 µM (inactive) | 44 µM (inactive) | > 100 µM (inactive) | > 100 µM (inactive)
CNc1cc2oc(=O)cc(C)c2cc1C | – | > 100 µM (inactive) | > 100 µM (inactive) | > 100 µM (inactive) | > 100 µM (inactive) | 72.6 µM (inactive) | > 100 µM (inactive) | 86.3 µM (inactive) | > 100 µM (inactive) | > 100 µM (inactive) | 25.4 µM (inactive) | > 100 µM (inactive) | > 100 µM (inactive) | > 100 µM (inactive) | > 100 µM (inactive) | 79.1 µM (inactive) | 36.4 µM (inactive) | > 100 µM (inactive) | > 100 µM (inactive) | > 100 µM (inactive)
CC(CCCCNC(=O)OC(C)(C)C)NC(=O)NC(C)CCCCNC(=O)OC(C)(C)C (stereo not given) | > 100 µM (inactive) | – | 54 µM (inactive) | > 100 µM (inactive) | 72.6 µM (inactive) | 73.6 µM (inactive) | > 100 µM (inactive) | 31.3 µM (inactive) | > 100 µM (inactive) | 83.2 µM (inactive) | 39 µM (inactive) | > 100 µM (inactive) | > 100 µM (inactive) | > 100 µM (inactive) | > 100 µM (inactive) | > 100 µM (inactive) | 99.8 µM (inactive) | > 100 µM (inactive) | > 100 µM (inactive) | > 100 µM (inactive)
CN1CCN([C@H]2C[C@H]3[C@@H]4CC=C5C[C@@H](N6CCCC6)CC[C@]5(C)[C@H]4CC[C@]3(C)[C@H]2O)CC1 | 56 µM (inactive) | > 100 µM (inactive) | > 100 µM (inactive) | 15.6 µM (inactive) | 19 µM (inactive) | 67.3 µM (inactive) | 66.8 µM (inactive) | > 100 µM (inactive) | 67.8 µM (inactive) | 14.9 µM (inactive) | 21.2 µM (inactive) | 20.6 µM (inactive) | 32.7 µM (inactive) | 74.6 µM (inactive) | > 100 µM (inactive) | > 100 µM (inactive) | < 0.01 µM (active) | > 10 µM (inactive) | > 100 µM (inactive) | 51.1 µM (inactive)
O=[N+]([O-])c1cccc(/C=N/NC2=CS(=O)(=O)C=C2)c1 | > 100 µM (inactive) | > 100 µM (inactive) | > 100 µM (inactive) | > 100 µM (inactive) | > 100 µM (inactive) | > 100 µM (inactive) | > 100 µM (inactive) | > 100 µM (inactive) | > 100 µM (inactive) | > 100 µM (inactive) | 42.6 µM (inactive) | > 100 µM (inactive) | > 100 µM (inactive) | > 100 µM (inactive) | > 100 µM (inactive) | > 100 µM (inactive) | > 100 µM (inactive) | > 100 µM (inactive) | > 100 µM (inactive) | > 100 µM (inactive)
COc1cc(OC)cc(-n2c(N)c(-c3nc4ccccc4s3)c3ccc([N+](=O)[O-])cc3c2=O)c1 | 56.9 µM (inactive) | – | 25.7 µM (inactive) | – | > 100 µM (inactive) | > 100 µM (inactive) | 13.3 µM (inactive) | 13.3 µM (inactive) | – | 13.4 µM (inactive) | 0.208 µM (active) | > 100 µM (inactive) | 57 µM (inactive) | 21.3 µM (inactive) | 24.9 µM (inactive) | 27.7 µM (inactive) | 24.3 µM (inactive) | 31.8 µM (inactive) | 18.4 µM (inactive) | –
O=C1c2c(Br)sc(Br)c2[C@@H](NC(=O)C(F)(F)F)C1Br (stereo not given in full) | 5.66 µM (inactive) | 5.82 µM (inactive) | 5.53 µM (inactive) | 2.34 µM (inactive) | 2.87 µM (inactive) | 3.66 µM (inactive) | 2.68 µM (inactive) | 16.8 µM (inactive) | 2.92 µM (inactive) | 1.93 µM (inactive) | 0.631 µM (active) | 3.05 µM (inactive) | 3.71 µM (inactive) | 2.79 µM (inactive) | 3.32 µM (inactive) | 7.94 µM (inactive) | 2.07 µM (inactive) | 3.6 µM (inactive) | 2.72 µM (inactive) | 12.9 µM (inactive)
COc1ccc(-c2cc(=O)c3c(OC)c(OC)c(OC)cc3o2)cc1 | – | 21.1 µM (inactive) | 27 µM (inactive) | 54.8 µM (inactive) | 40.6 µM (inactive) | 27.5 µM (inactive) | 35.2 µM (inactive) | 36 µM (inactive) | 37.9 µM (inactive) | 34.4 µM (inactive) | 11.7 µM (inactive) | 45.6 µM (inactive) | 31.1 µM (inactive) | 43.8 µM (inactive) | 28.2 µM (inactive) | 35.6 µM (inactive) | 11.3 µM (inactive) | 68.7 µM (inactive) | 25.2 µM (inactive) | 21.1 µM (inactive)
